Assay [1] has as its target T1, BuChE (Equus caballus, UniProt P81908).
T1 construct: purchased Sigma-Aldrich Co. (St. Louis, Missouri, United States) C1057
Briefly: biochemical. To be noted: for inhibition at 100 µM: read-out: Inhibition of BuChE; for IC50: 0.05 Unit/mL enzyme, pH 7.4, 37°C, 30 min, triplicate, mean ± SEM. Format: biochemical. The protocol:
(§1) All HPLC solvents were purchased from Guangdong Guanghua Sci-Tech Co. Ltd. (Guangzhou, China). […] All chemicals and solvents used in column chromatography and assays were acquired from commercial sources.
(§2) 25 µL of 1 mM DTNB [5,5′-dithiobis (2-nitrobenzoic acide)] and 25 µL of 5 mM substrate, acetylthiocholine iodide (A5751), and butyrylthiocholine iodide (B3253) were sequentially added to wells in the plate. […] The inhibition ratio was calculated using the equation: Inhibitory activity(%)=[(ΔC-ΔI)/ΔC]×100 Where C and I are the intensity of control and inhibitor after 20 min, respectively.
(§3) Compounds were first evaluated in vitro for their inhibitory activities against AChE and BuChE at a concentration of 100 µM.

Assay [2] addresses T2, AChE (Electrophorus electricus, UniProt O42275).
T2 construct: purchased Sigma-Aldrich Co. (St. Louis, Missouri, United States) C3389
Put plainly: biochemical. To be noted: for inhibition at 100 µM: read-out: Inhibition of AChE; for IC50: 0.05 Unit/mL enzyme, pH 7.4, 37°C, 30 min, triplicate, mean ± SEM. The protocol:
as §1, §2, §3

Assay [3] deals with T1, BuChE. Put plainly: Enzyme kinetics on BuChE (Lineweaver-Burk and Dixon plots). The assay is classed as biochemical. To be noted: for Ki: Dixon plots, read-out: BuChE K i; for BuChE Inhibition type: Lineweaver-Burk plots, compound 2–90 µM, substrate 0.07–5 mM. The protocol: (§4) […]. This was achieved by performing enzyme kinetic studies on AChE/BuChE in the presence of different concentrations of compounds 30–34 (2–90 µM) at various steady-state substrate concentrations (0.07–5 mM). The interactions between compounds and cholinesterase are represented using classic double-reciprocal Lineweaver-Burk and Dixon plots ([Lineweaver and Burk, 1934]; [Dixon, 1953]). […] The resulting linear equations for compounds 30–34 with BuChE led to a series of lines with different slopes that crossed at similar intercepts on the vertical axis and different points on the horizontal axis.

Assay [4] addresses T2, AChE. Put plainly: Enzyme kinetics on AChE (Lineweaver-Burk and Dixon plots). To be noted: for Ki: Dixon plots, read-out: AChE K i; for AChE Inhibition type: Lineweaver-Burk plots, compound 2–90 µM, substrate 0.07–5 mM. Format: biochemical. The protocol:
as §4

Here are results for eight molecules from publication PMC9313597, “In Vitro and in Silico Analysis of Phytochemicals From Fallopia dentatoalata as Dual Functional Cholinesterase Inhibitors for the Treatment of Alzheimer’s Disease” (Frontiers in Pharmacology, 2022).

“And” between values parts separate entries of the source, which are not always exact repeats. Equal entries are not always repeated. Where two headings read alike, the source gives them in different places.

By inhibition is commonly meant the change of the read-out against control, counted positive when it falls. As a reminder, the IC50 is the concentration that gives 50% inhibition. Read a low IC50 as greater potency in that assay.

T1 sequence (P81908 whole entry): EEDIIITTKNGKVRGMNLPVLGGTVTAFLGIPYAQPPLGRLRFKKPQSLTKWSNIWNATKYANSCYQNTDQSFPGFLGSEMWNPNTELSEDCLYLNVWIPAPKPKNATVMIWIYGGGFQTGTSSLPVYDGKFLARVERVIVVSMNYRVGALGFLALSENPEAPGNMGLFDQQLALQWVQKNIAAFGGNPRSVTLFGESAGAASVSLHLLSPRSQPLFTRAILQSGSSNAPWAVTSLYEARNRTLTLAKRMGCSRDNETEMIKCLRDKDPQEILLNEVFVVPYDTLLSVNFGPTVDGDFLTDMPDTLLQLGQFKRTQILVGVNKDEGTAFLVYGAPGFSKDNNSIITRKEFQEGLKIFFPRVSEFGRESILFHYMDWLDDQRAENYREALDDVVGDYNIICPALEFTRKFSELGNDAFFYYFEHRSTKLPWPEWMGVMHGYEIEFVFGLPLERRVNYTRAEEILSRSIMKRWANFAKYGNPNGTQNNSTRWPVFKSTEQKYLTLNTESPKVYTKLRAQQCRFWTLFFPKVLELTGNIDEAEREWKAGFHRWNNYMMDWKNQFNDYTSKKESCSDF
T2 sequence (O42275 24-633): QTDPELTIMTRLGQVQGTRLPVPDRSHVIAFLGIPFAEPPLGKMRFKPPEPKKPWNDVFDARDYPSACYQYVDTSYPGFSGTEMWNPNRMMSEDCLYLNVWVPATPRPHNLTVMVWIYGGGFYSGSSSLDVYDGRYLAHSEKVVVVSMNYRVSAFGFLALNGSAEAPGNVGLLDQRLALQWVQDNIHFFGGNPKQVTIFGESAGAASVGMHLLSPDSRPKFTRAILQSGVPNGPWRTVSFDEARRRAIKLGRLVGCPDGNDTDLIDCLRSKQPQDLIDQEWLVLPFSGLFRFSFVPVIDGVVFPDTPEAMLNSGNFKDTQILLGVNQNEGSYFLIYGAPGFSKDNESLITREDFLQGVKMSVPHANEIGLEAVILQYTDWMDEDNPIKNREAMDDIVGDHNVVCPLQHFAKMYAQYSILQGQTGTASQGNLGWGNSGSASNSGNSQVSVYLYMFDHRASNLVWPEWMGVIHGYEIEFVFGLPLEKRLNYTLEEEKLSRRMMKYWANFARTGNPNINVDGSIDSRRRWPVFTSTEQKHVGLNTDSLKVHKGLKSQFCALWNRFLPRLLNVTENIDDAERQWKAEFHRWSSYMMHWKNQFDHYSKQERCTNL

`O=c1cc(-c2ccc(O)cc2)oc2cc(O)cc(O)c12` [Compound 1, apigenin]: the inhibition at 100 µM at BuChE [1] (at 100 µM) and on AChE [2] was greater than 50% each time.
Regarding `COc1cc(/C=C/C(=O)OC[C@H]2O[C@@](COC(=O)/C=C/c3ccc(O)c(OC)c3)(O[C@H]3O[C@H](COC(=O)/C=C/c4ccc(O)c(OC)c4)[C@@H](O)[C@H](O)[C@H]3O)[C@@H](OC(=O)/C=C/c3ccc(O)cc3)[C@@H]2O)ccc1O` [Compound 30, lapathoside B], the midpoint of inhibition against BuChE [1], the IC50, lay at 10.9 ± 4.9 µM. On AChE [2], the IC50 was greater than 100 µM. On BuChE [3], the Ki is roughly 12.1 µM and the “BuChE Inhibition type” value was “Competitive”.
On to `COc1cc(/C=C/C(=O)OC[C@H]2O[C@H](O[C@]3(COC(=O)/C=C/c4ccc(O)cc4)O[C@H](COC(=O)/C=C/c4ccc(O)cc4)[C@@H](O)[C@@H]3OC(=O)/C=C/c3ccc(O)cc3)[C@H](O)[C@@H](O)[C@@H]2O)ccc1O` [Compound 31, vanicoside B], for which, at BuChE [1], half-maximal inhibition (IC50) was put at 7.5 ± 4.1 µM. The “BuChE inhibitory activity relative to Compound 34” value at BuChE [1] (from IC50 values (7.5 vs 17.1 µM)) is “over 2 fold”. The molecule also came in with an IC50 against AChE [2] of 32.3 ± 4.7 µM. The inhibition at 100 µM at AChE [2] (at 100 µM) was greater than 60%. Further, at BuChE [3], the Ki was roughly 3.5 µM and the “BuChE Inhibition type” value was “Competitive”. At AChE [4], the Ki was roughly 30 µM and the “AChE Inhibition type” value is reported as “non-competitive inhibitors”.
Consider `Oc1cc(O)c2c(c1)O[C@H](c1ccc(O)c(O)c1)[C@H](O)C2` [Compound 19, (-)-epicatechin], for which the inhibition at 100 µM at BuChE [1] (at 100 µM) and at AChE [2] (at 100 µM) was greater than 50% throughout.
For `O=c1c(O[C@@H]2O[C@H](CO)[C@@H](O)[C@H](O)[C@H]2O)c(-c2ccc(O)cc2)oc2cc(O)cc(O)c12` [Compound 5, astragalin], the inhibition at 100 µM at BuChE [1] and at AChE [2] was greater than 50% each time.
Consider `COc1cc(/C=C/C(=O)OC[C@H]2O[C@H](O[C@]3(COC(=O)/C=C/c4ccc(O)c(OC)c4)O[C@H](COC(=O)/C=C/c4ccc(O)cc4)[C@@H](O)[C@@H]3OC(=O)/C=C/c3ccc(O)cc3)[C@H](O)[C@@H](O)[C@@H]2O)ccc1O` [Compound 32, lapathoside A], for which the IC50 came out at 2.7 ± 1.7 µM against BuChE [1] and 30.6 ± 4.7 µM on AChE [2]. Further, the inhibition at 100 µM at AChE [2] (at 100 µM) was greater than 60%. For the same molecule, the results for the Ki on BuChE [3] and on AChE [4] were roughly 1.8 µM and roughly 34.4 µM, respectively. Besides, at BuChE [3], the “BuChE Inhibition type” value is given as “Competitive”. For the same molecule, on AChE [4], the “AChE Inhibition type” value was “non-competitive inhibitors”.
On to smilaside J [Compound 33], for which the IC50 against BuChE [1] worked out at 10.1 ± 4.6 µM. The same molecule had an IC50 against AChE [2] of 56 ± 2.4 µM. Also, on BuChE [3], the Ki is roughly 8.5 µM and the “BuChE Inhibition type” value is “Competitive”.
Regarding smilaside G [Compound 34], the IC50 at BuChE [1] is 17.1 ± 3.4 µM; on AChE [2] it was greater than 100 µM. Also, the Ki at BuChE [3] was 17.5 µM and ~17.5 µM. Besides, at BuChE [3], the “BuChE Inhibition type” value is reported as “Competitive”.
